# According to ChEMBL document CHEMBL4732083, “Synthesis and anti-inflammatory activity of saponin derivatives of δ-oleanolic acid” (Eur J Med Chem, 2021):
# The source made the active and inactive calls. The rule behind the calls is not given here.
# Columns and labels:
# [1] = biological target: T1, AMP-activated protein kinase, AMPK (Homo sapiens) (UniProt P54646+O43741+P54619+Q9UGJ0+Q9Y478+Q13131+Q9UGI9); assay: Activation of AMPK in human Huh-7 cells assessed as increase in AMPK phosphorylation at Thr172 residue at 10 uM measured after 12 hrs by Western blot analysis; assay type: cell-based; settings: filed as activator
# [2] = AUC (0 to t) in BALB/c mouse at 10 mg/kg, po by LC/MS-MS analysis; assay type: ADME, organism-based; parameters: dose 10 mg/kg; settings: in vivo
# [3] = Cmax in BALB/c mouse at 2 mg/kg, iv by LC/MS-MS analysis; assay type: ADME, organism-based; parameters: route intravenous, dose 2 mg/kg; settings: in vivo
# [4] = Half life in BALB/c mouse at 2 mg/kg, iv by LC/MS-MS analysis; assay type: ADME, organism-based; settings: in vivo
# [5] = Metabolic stability in human liver microsomes assessed as half life in presence of NADPH by LC-MS analysis; assay type: ADME, Microsome
# THP-1 [6] = assay: Cytotoxicity against human THP-1 cells assessed as reduction in cell viability at 1 to 10 uM; assay type: cell-based; settings: thp-1, 10 µM
# [7] = Cmax in BALB/c mouse at 10 mg/kg, po by LC/MS-MS analysis; assay type: ADME, organism-based; parameters: route oral, dose 10 mg/kg; settings: in vivo
# THP-1 [8] = assay: Antiinflammatory activity in human THP-1 cells assessed as reduction in LPS-induced TNF alpha secretion at 10 uM incubated for 12 hrs measured by ELISA; assay type: functional, cell-based
# [9] = Bioavailability in BALB/c mouse at 10 mg/kg, po by LC/MS-MS analysis; assay type: ADME, organism-based; settings: in vivo
# [10] = AUC (0 to t) in BALB/c mouse at 2 mg/kg, iv by LC/MS-MS analysis; assay type: ADME, organism-based; parameters: dose 2 mg/kg; settings: in vivo
# [11] = AUC (0 to infinity) in BALB/c mouse at 10 mg/kg, po by LC/MS-MS analysis; assay type: ADME, organism-based; parameters: route oral, time infinity, dose 10 mg/kg; settings: in vivo
# [12] = AUC (0 to infinity) in BALB/c mouse at 2 mg/kg, iv by LC/MS-MS analysis; assay type: ADME, organism-based; parameters: route intravenous, time infinity, dose 2 mg/kg; settings: in vivo
# THP-1 [13] = assay: Antiinflammatory activity in human THP-1 cells assessed as reduction in LPS-induced IL6 secretion at 10 uM incubated for 12 hrs measured by ELISA; assay type: functional, cell-based
# [14] = Metabolic stability in mouse liver microsomes assessed as half life in presence of NADPH by LC-MS analysis; assay type: ADME, Microsome
# [15] = Half life in BALB/c mouse at 10 mg/kg, po by LC/MS-MS analysis; assay type: ADME, organism-based; settings: in vivo
# [16] = Tmax in BALB/c mouse at 2 mg/kg, iv by LC/MS-MS analysis; assay type: ADME, organism-based; settings: in vivo
# [17] = Tmax in BALB/c mouse at 10 mg/kg, po by LC/MS-MS analysis; assay type: ADME, organism-based; settings: in vivo
# [18] = Metabolic stability in human liver microsomes assessed as intrinsic clearance in presence of NADPH by LC-MS analysis; assay type: ADME, Microsome; settings: read-out: CLH
# [19] = Metabolic stability in mouse liver microsomes assessed as intrinsic clearance in presence of NADPH by LC-MS analysis; assay type: ADME, Microsome; settings: read-out: CLH
# [20] = biological target: T1, AMP-activated protein kinase, AMPK (Homo sapiens); assay: Activation of AMPK in human HepG2 cells assessed as increase in acetyl-CoA carboxylase phosphorylation at Ser79 measured upto 12 hrs by Western blot analysis; assay type: cell-based; settings: filed as activator, dose microM <=20, time hrs <=12
# [21] = biological target: T1, AMP-activated protein kinase, AMPK (Homo sapiens); assay: Activation of AMPK in human HepG2 cells assessed as increase in AMPK phosphorylation at Thr172 residue at 10 uM measured by Western blot analysis; assay type: cell-based; settings: filed as activator, time hrs <=12, TDE = time-dependent effect
# [22] = biological target: T1, AMP-activated protein kinase, AMPK (Homo sapiens); assay: Activation of AMPK in human Huh-7 cells assessed as increase in acetyl-CoA carboxylase phosphorylation at Ser79 measured upto 12 hrs by Western blot analysis; assay type: cell-based; settings: filed as activator, dose microM <=20, time hrs <=12
# [23] = biological target: T1, AMP-activated protein kinase, AMPK (Homo sapiens); assay: Activation of AMPK in human HepG2 cells assessed as increase in acetyl-CoA carboxylase phosphorylation at Ser79 residue at 10 uM measured by Western blot analysis; assay type: cell-based; settings: filed as activator, time hrs <=12, TDE = time-dependent effect
# [24] = biological target: T1, AMP-activated protein kinase, AMPK (Homo sapiens); assay: Activation of AMPK in human Huh-7 cells assessed as increase in AMPK phosphorylation at Thr172 measured upto 12 hrs by Western blot analysis; assay type: cell-based; settings: filed as activator, dose microM <=20, time hrs <=12
# [25] = biological target: T1, AMP-activated protein kinase, AMPK (Homo sapiens); assay: Activation of AMPK in human Huh-7 cells assessed as increase in AMPK phosphorylation at Thr172 residue at 10 uM measured by Western blot analysis; assay type: cell-based; settings: filed as activator, time hrs <=12, TDE = time-dependent effect
# [26] = biological target: T1, AMP-activated protein kinase, AMPK (Homo sapiens); assay: Activation of AMPK in human HepG2 cells assessed as increase in AMPK phosphorylation measured upto 12 hrs by Western blot analysis; assay type: cell-based; settings: filed as activator, dose microM <=20, time hrs <=12
# [27] = biological target: T1, AMP-activated protein kinase, AMPK (Homo sapiens); assay: Activation of AMPK in human Huh-7 cells assessed as increase in acetyl-CoA carboxylase phosphorylation at Ser79 residue at 10 uM measured by Western blot analysis; assay type: cell-based; settings: filed as activator, time hrs <=12, TDE = time-dependent effect
compound,measurement,setting,value
C[C@@H]1CC[C@]2(C(=O)O[C@@H]3O[C@H](CO)[C@@H](O)[C@H](O)[C@H]3O)CC[C@]3(C)C(=CC[C@@H]4[C@@]5(C)CC[C@H](O[C@@H]6OC[C@H](O)[C@H](O)[C@H]6O)C(C)(C)[C@@H]5CC[C@]43C)[C@@H]2[C@]1(C)O,Activity,[1],Active
CC1(C)CC[C@]2(C(=O)O[C@@H]3OC[C@@H](O)[C@H](O)[C@H]3O)CC[C@]3(C)C(=C2C1)CC[C@@H]1[C@@]2(C)CC[C@H](O[C@@H]4OC[C@H](O)[C@H](O)[C@H]4O)C(C)(C)[C@@H]2CC[C@]13C,AUC(0-t),[2],3000 ng·h/mL
same,Cmax,[3],3500 ng/mL
same,half-life,[4],104 min
same,half-life,[5],45 min
same,Activity,THP-1 [6],Non-Toxic
same,Cmax,[7],728 ng/mL
same,Activity,THP-1 [8],Active
same,bioavailability,[9],18.6%
same,AUC(0-t),[10],3220 ng·h/mL
same,AUC(0-inf),[11],3080 ng·h/mL
same,AUC(0-inf),[12],3300 ng·h/mL
same,Activity,THP-1 [13],Active
same,half-life,[14],> 120 min
same,half-life,[15],68.4 min
same,Tmax,[16],4.8 min
same,Tmax,[17],160 min
same,CLint scaled,[18],38.6 mL/min/kg
CC1(C)CC[C@]2(C(=O)O)CC[C@]3(C)C(=CC[C@@H]4[C@@]5(C)CC[C@H](O[C@@H]6O[C@H](C(=O)O)[C@@H](O)[C@H](O[C@@H]7OC[C@@H](O)[C@H](O)[C@H]7O)[C@H]6O)C(C)(C)[C@@H]5CC[C@]43C)[C@@H]2C1,Activity,[1],Active
C[C@H]1[C@H](C)CC[C@]2(C(=O)O)CC[C@]3(C)C(=CC[C@@H]4[C@@]5(C)CC[C@H](O)C(C)(C)[C@@H]5CC[C@]43C)[C@H]12,Activity,[1],Active
O=C(c1ccc(F)cc1)C1CCN(CCn2c(=O)[nH]c3ccccc3c2=O)CC1 [KETANSERIN],CLint scaled,[19],283 mL/min/kg
same,half-life,[5],42.4 min
same,half-life,[14],19.3 min
same,CLint scaled,[18],41 mL/min/kg
CC1(C)CC[C@]2(C(=O)O[C@@H]3O[C@H](CO)[C@@H](O)[C@H](O)[C@H]3O)CC[C@]3(C)C(=CC[C@@H]4[C@@]5(C)CC[C@H](O[C@@H]6O[C@H](C(=O)O)[C@@H](O)[C@H](O)[C@H]6O[C@@H]6O[C@H](CO)[C@@H](O)[C@H](O)[C@H]6O)C(C)(C)[C@@H]5CC[C@]43C)[C@@H]2C1,Activity,[1],Active
CC1(C)CC[C@]2(C(=O)O)CC[C@]3(C)C(=C2C1)CC[C@@H]1[C@@]2(C)CC[C@H](O)C(C)(C)[C@@H]2CC[C@]13C,Activity,[20],Dose-dependent effect
same,Activity,[21],Tde
same,Activity,THP-1 [6],Non-Toxic
same,Activity,[1],Active
same,Activity,[22],Dose-dependent effect
same,Activity,[23],Tde
same,Activity,[24],Dose-dependent effect
same,Activity,[25],Tde
same,Activity,[26],Dose-dependent effect
same,Activity,[27],Tde
C[C@H]1[C@H](C)CC[C@]2(C(=O)O)CC[C@]3(C)C(=CC[C@@H]4[C@@]5(C)C[C@@H](O)[C@H](O)[C@@](C)(CO)[C@@H]5[C@H](O)C[C@]43C)[C@H]12,Activity,[1],Active
C[C@@H]1O[C@@H](O[C@H]2[C@H](O[C@H]3CC[C@@]4(C)[C@@H](CC[C@]5(C)[C@@H]4CC=C4[C@@H]6CC(C)(C)CC[C@]6(C(=O)O[C@@H]6O[C@H](CO[C@@H]7O[C@H](CO)[C@@H](O[C@@H]8O[C@@H](C)[C@H](O)[C@@H](O)[C@H]8O)[C@H](O)[C@H]7O)[C@@H](O)[C@H](O)[C@H]6O)CC[C@]45C)[C@]3(C)CO)OC[C@H](O)[C@@H]2O)[C@H](O)[C@H](O)[C@H]1O,Activity,[1],Active
CC1(C)[C@@H](O[C@H]2O[C@H](C(=O)O)[C@@H](O)[C@H](O)[C@H]2O[C@@H]2O[C@H](C(=O)O)[C@@H](O)[C@H](O)[C@H]2O)CC[C@]2(C)[C@H]3C(=O)C=C4[C@@H]5C[C@@](C)(C(=O)O)CC[C@]5(C)CC[C@@]4(C)[C@]3(C)CC[C@@H]12,Activity,[1],Active
C[C@@H]1CC[C@]2(C(=O)O)CC[C@]3(C)C(=CC[C@@H]4[C@@]5(C)CC[C@H](O[C@@H]6OC[C@H](O)[C@H](O)[C@H]6O)C(C)(C)[C@@H]5CC[C@]43C)[C@@H]2[C@]1(C)O,Activity,[1],Active
CC1(C)CC[C@]2(C(=O)O)CC[C@]3(C)C(=CC[C@@H]4[C@@]5(C)CC[C@H](O)[C@@](C)(CO)[C@@H]5CC[C@]43C)[C@@H]2C1,Activity,[1],Active
